# Source: paper PMC8550792, “Evolution of kinase polypharmacology across HSP90 drug discovery” (Cell Chemical Biology, 2021)
# Several values for one entry are separate records, joined by “and”; a condition that tells them apart may be missing. Equal values may be shown once.
# Columns and labels:
# BLK = target: T1, BLK (Homo sapiens, UniProt P51451); assay: HotSpot in vitro kinase radiometric assay; assay type: biochemical; settings: for inhibition at 10 µM: read-out: % inhibition at 10 uM: BLK, Fig 6C median ± standard deviation (n = 2)
# T1 construct: purchased Reaction Biology (HotSpot contract assay)
# T1 sequence (P51451 whole entry): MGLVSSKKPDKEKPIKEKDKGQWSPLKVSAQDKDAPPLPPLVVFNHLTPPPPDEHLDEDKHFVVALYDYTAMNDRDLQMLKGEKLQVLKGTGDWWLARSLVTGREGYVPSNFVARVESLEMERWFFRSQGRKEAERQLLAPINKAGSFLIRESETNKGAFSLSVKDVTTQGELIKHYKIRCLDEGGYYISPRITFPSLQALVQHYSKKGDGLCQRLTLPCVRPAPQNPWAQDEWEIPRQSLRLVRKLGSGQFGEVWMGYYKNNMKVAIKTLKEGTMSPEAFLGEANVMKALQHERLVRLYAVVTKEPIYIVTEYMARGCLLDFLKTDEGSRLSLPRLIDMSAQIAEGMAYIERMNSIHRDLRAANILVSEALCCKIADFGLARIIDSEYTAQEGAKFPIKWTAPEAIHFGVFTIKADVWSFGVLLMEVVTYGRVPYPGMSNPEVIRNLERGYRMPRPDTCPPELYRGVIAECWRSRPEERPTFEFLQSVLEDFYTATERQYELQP
# In short: (§1)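 Kinase + substrate + cofactors + 32P-ɣ-ATP or 33P-ɣ-ATP incubated with compound; mixture spotted on filter paper; bound radiolabelled product counted. Direct catalytic activity readout.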
# PDK2/PDHK2 = target: T2, PDK2/PDHK2 (Homo sapiens, UniProt Q15119); assay: HotSpot in vitro kinase radiometric assay; assay type: biochemical; settings: for inhibition at 10 µM: read-out: % inhibition at 10 uM: PDK2, Fig 6C median ± standard deviation (n = 2)
# T2 construct: purchased Reaction Biology (HotSpot contract assay)
# In short: as §1
# PDK4/PDKH4 = target: T3, PDK4/PDKH4 (Homo sapiens, UniProt Q16654); assay: HotSpot in vitro kinase radiometric assay; assay type: biochemical; settings: for inhibition at 10 µM: read-out: % inhibition at 10 uM: PDK4, Fig 6C median ± standard deviation (n = 2)
# T3 construct: purchased Reaction Biology (HotSpot contract assay)
# T3 sequence (Q16654 whole entry): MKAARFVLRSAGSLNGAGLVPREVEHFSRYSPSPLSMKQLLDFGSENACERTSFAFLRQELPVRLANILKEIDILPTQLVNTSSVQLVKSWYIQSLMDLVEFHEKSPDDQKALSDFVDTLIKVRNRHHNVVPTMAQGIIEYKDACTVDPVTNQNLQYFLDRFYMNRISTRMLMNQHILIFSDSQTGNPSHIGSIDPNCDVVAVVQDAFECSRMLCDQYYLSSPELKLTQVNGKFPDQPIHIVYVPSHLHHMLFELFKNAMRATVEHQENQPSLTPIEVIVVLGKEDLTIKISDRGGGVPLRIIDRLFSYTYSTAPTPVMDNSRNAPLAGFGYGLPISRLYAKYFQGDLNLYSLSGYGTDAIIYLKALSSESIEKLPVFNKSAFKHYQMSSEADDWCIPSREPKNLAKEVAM
# In short: as §1
# c-Src = target: T4, c-Src (Homo sapiens, UniProt P12931); assay: HotSpot in vitro kinase radiometric assay; assay type: biochemical; settings: for inhibition at 10 µM: read-out: % inhibition at 10 uM: SRC, Fig 6C median ± standard deviation (n = 2)
# T4 construct: purchased Reaction Biology (HotSpot contract assay)
# T4 sequence (P12931 whole entry): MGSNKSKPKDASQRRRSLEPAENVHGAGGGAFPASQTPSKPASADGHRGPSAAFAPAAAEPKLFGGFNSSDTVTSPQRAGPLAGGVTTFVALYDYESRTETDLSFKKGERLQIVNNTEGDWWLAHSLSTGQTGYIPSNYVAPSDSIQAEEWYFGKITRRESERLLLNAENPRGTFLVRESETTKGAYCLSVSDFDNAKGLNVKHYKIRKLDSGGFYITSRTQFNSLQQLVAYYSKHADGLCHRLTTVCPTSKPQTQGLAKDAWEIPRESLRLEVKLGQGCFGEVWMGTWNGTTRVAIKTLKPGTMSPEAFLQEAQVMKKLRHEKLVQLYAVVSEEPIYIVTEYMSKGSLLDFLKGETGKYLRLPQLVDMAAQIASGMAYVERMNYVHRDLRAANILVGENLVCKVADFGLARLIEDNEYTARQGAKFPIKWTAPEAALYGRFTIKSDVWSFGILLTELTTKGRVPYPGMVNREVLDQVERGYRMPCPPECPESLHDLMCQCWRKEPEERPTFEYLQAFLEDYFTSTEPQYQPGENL
# In short: as §1
# PASK = target: T5, PASK (Homo sapiens, UniProt Q96RG2); assay: HotSpot in vitro kinase radiometric assay; assay type: biochemical; settings: for inhibition at 10 µM: read-out: % inhibition at 10 uM: PASK, Fig 6C median ± standard deviation (n = 2)
# T5 construct: purchased Reaction Biology (HotSpot contract assay)
# T5 sequence (Q96RG2 whole entry): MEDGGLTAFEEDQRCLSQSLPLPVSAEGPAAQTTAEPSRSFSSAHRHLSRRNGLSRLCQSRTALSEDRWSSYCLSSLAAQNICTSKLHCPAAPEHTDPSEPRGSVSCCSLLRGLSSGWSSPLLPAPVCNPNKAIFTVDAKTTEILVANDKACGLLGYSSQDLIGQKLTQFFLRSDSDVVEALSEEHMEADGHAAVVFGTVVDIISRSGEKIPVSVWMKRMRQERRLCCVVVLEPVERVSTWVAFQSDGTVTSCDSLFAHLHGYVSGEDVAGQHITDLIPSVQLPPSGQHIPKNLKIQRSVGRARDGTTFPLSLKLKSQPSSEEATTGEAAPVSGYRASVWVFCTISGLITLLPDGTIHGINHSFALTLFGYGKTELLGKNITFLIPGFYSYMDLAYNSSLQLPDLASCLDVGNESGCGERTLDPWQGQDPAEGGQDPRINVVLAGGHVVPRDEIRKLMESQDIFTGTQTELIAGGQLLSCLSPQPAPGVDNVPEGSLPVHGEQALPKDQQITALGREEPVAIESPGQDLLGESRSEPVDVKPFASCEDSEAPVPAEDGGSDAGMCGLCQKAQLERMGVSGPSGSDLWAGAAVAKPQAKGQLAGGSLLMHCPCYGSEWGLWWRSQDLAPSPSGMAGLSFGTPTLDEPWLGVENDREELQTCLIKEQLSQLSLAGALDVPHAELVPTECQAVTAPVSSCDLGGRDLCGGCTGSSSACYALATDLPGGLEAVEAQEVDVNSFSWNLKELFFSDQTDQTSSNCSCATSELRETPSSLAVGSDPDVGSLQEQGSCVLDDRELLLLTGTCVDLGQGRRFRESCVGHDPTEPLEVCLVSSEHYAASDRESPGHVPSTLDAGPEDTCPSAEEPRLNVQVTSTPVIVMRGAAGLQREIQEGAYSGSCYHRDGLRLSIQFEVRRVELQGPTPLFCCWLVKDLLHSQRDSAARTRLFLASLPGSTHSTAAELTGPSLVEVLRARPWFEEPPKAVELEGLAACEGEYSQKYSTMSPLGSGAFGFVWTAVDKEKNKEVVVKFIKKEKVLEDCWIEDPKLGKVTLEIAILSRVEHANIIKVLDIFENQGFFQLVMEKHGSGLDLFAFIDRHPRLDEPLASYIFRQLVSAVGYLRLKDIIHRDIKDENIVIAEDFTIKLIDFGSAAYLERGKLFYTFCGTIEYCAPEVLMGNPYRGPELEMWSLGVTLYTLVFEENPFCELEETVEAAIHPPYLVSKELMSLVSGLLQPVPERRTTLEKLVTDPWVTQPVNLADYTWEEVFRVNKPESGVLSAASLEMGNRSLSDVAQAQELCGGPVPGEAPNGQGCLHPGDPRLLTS
# In short: as §1
# TRKA = target: T6, TRKA (Homo sapiens, UniProt P04629); assay: HotSpot in vitro kinase radiometric assay; assay type: biochemical; settings: for inhibition at 10 µM: read-out: % inhibition at 10 uM: TRKA, Fig 6C median ± standard deviation (n = 2)
# T6 construct: purchased Reaction Biology (HotSpot contract assay)
# T6 sequence (P04629 33-796): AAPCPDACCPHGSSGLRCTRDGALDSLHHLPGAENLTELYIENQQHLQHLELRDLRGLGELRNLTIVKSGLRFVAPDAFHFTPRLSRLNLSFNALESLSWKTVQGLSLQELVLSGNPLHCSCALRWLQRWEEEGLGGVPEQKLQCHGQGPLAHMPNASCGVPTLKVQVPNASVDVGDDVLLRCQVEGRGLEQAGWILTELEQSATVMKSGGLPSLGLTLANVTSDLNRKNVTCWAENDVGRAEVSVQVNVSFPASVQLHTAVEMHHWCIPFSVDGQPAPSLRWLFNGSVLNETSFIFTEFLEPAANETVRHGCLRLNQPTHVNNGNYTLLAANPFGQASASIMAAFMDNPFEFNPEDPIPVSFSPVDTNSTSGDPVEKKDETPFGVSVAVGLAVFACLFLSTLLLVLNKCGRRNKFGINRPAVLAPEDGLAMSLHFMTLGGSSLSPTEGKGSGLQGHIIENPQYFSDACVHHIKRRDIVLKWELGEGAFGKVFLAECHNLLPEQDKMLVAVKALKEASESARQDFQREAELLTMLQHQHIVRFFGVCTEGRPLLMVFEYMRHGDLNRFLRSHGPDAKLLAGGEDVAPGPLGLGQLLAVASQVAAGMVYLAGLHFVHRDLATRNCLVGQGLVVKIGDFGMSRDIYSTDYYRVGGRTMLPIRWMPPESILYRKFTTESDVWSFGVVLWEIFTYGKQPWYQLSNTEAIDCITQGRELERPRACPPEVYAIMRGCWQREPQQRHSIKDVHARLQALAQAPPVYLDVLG
# In short: as §1
# 382 unique human kinases [1] = target: T7, 382 unique human kinases (Homo sapiens, UniProt P00519, F317L); assay: biochemical; assay type: biochemical; settings: ABL1 (F317L), [ATP] 5 µM, compound 10 uM
# T7 construct: purchased Reaction Biology (HotSpot contract assay)
# 382 unique human kinases [2] = target: T8, 382 unique human kinases (Homo sapiens, UniProt P00519, V299L); assay: biochemical; assay type: biochemical; settings: ABL1 (V299L), [ATP] 5 µM, compound 10 uM
# T8 construct: purchased Reaction Biology (HotSpot contract assay)
# 382 unique human kinases [3] = target: T9, 382 unique human kinases (Homo sapiens, UniProt P04626); assay: biochemical; assay type: biochemical; settings: ERBB2/HER2, 10 uM
# T9 construct: purchased Reaction Biology (HotSpot contract assay)
# 382 unique human kinases [4] = target: T10, 382 unique human kinases (Homo sapiens, UniProt P15056, G464V); assay: biochemical; assay type: biochemical; settings: BRAF (G464V), 10 uM
# T10 construct: purchased Reaction Biology (HotSpot contract assay)
# T10 sequence (P15056 whole entry G464V): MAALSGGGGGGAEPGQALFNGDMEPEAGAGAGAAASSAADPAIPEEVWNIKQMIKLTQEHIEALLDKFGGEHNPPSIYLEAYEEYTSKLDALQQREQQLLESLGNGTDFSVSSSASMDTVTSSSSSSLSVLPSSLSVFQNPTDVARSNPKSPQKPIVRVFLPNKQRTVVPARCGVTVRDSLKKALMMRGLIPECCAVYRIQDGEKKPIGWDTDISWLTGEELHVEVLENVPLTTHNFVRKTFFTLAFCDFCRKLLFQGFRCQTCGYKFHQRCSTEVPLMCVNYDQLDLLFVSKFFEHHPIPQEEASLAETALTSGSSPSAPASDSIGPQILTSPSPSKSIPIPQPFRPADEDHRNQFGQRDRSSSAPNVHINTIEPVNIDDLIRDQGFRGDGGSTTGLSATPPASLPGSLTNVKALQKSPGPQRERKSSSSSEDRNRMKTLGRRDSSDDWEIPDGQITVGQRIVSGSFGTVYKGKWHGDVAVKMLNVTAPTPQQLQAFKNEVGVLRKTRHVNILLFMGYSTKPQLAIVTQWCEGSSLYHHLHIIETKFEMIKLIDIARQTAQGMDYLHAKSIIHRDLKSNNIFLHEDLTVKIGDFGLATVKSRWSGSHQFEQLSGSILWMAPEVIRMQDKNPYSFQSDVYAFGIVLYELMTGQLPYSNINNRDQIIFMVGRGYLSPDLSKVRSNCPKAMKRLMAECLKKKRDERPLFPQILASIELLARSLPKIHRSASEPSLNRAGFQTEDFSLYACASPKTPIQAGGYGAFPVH
# 382 unique human kinases [5] = target: T11, 382 unique human kinases (Homo sapiens, UniProt P15056, G469A); assay: biochemical; assay type: biochemical; settings: BRAF (G469A), 10 uM
# T11 construct: purchased Reaction Biology (HotSpot contract assay)
# T11 sequence (P15056 whole entry G469A): as the sequence (P15056 whole entry G464V) above, with V464G, G469A counted along it
# 382 unique human kinases [6] = target: T12, 382 unique human kinases (Homo sapiens, UniProt P15056, V600D); assay: biochemical; assay type: biochemical; settings: BRAF (V600D), 10 uM
# T12 construct: purchased Reaction Biology (HotSpot contract assay)
# T12 sequence (P15056 whole entry V600D): as the sequence (P15056 whole entry G464V) above, with V464G, V600D counted along it
# 382 unique human kinases [7] = target: T13, 382 unique human kinases (Homo sapiens, UniProt P17948); assay: biochemical; assay type: biochemical; settings: FLT1/VEGFR1, [ATP] 2.5 µM, compound 10 uM
# T13 construct: purchased Reaction Biology (HotSpot contract assay)
# 382 unique human kinases [8] = target: T14, 382 unique human kinases (Homo sapiens, UniProt Q96S53); assay: biochemical; assay type: biochemical; settings: TESK2, 10 uM
# T14 construct: purchased Reaction Biology (HotSpot contract assay)
# T14 sequence (Q96S53 whole entry): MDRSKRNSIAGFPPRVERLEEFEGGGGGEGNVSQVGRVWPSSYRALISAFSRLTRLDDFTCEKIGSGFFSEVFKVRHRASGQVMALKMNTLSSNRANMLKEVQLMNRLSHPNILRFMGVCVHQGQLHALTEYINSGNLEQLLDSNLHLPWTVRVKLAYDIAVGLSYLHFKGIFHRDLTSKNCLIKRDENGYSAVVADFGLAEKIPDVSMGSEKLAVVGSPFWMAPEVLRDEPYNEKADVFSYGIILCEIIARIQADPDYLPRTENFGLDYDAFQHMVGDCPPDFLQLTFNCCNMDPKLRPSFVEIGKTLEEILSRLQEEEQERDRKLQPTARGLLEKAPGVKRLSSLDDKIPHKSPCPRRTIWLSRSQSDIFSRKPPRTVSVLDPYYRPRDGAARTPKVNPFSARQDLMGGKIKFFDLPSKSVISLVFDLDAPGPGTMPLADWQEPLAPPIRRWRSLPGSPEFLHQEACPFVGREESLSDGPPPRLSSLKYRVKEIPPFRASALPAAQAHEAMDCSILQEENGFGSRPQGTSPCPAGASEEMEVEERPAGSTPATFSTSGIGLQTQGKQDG
# 382 unique human kinases [9] = target: T15, 382 unique human kinases (Homo sapiens, UniProt Q9BWU1); assay: biochemical; assay type: biochemical; settings: CDK19/cyclin C, 10 uM
# T15 construct: purchased Reaction Biology (HotSpot contract assay)
# 382 unique human kinases [10] = target: T16, 382 unique human kinases (Homo sapiens, UniProt P42345); assay: biochemical; assay type: biochemical; settings: mTOR/FRAP1; compound at 10 uM; duplicate values; read-out: % Enzyme Activity (relative to DMSO controls)
# T16 construct: purchased Reaction Biology (HotSpot contract assay)
# 382 unique human kinases [11] = target: T17, 382 unique human kinases (Homo sapiens, UniProt O14578); assay: biochemical; assay type: biochemical; settings: STK21/CIT, 10 uM
# T17 construct: purchased Reaction Biology (HotSpot contract assay)
# 382 unique human kinases [12] = target: T18, 382 unique human kinases (Homo sapiens, UniProt P00533, C797S/L858R/T790M); assay: biochemical; assay type: biochemical; settings: EGFR (T790M/C797S/L858R), compound at 10 uM, duplicate values
# T18 construct: purchased Reaction Biology (HotSpot contract assay)
# 382 unique human kinases [13] = target: T19, 382 unique human kinases (Homo sapiens, UniProt P07947, T348I); assay: biochemical; assay type: biochemical; settings: YES1 (T348I), compound at 10 uM, duplicate values
# T19 construct: purchased Reaction Biology (HotSpot contract assay)
# 382 unique human kinases [14] = target: T20, 382 unique human kinases (Homo sapiens, UniProt P08069); assay: biochemical; assay type: biochemical; settings: IGF1R, compound at 10 uM, duplicate values
# T20 construct: purchased Reaction Biology (HotSpot contract assay)
# 382 unique human kinases [15] = target: T21, 382 unique human kinases (Homo sapiens, UniProt P10721, D816I); assay: biochemical; assay type: biochemical; settings: c-Kit (D816I), 10 uM
# T21 construct: purchased Reaction Biology (HotSpot contract assay)
# 382 unique human kinases [16] = target: T22, 382 unique human kinases (Homo sapiens, UniProt P15056, L597V); assay: biochemical; assay type: biochemical; settings: BRAF (L597V), compound at 10 uM, duplicate values
# T22 construct: purchased Reaction Biology (HotSpot contract assay)
# T22 sequence (P15056 whole entry L597V): as the sequence (P15056 whole entry G464V) above, with V464G, L597V counted along it
# HSP90B1 = test system: HSP90B1; parameters: method as in ChEMBL23 (accessed: 23/08/2018); settings: average of reported values; ref ChEMBL23 (accessed: 23/08/2018); cited from earlier work
# [17] = read-out: % Enzyme Activity (relative to DMSO controls)
smiles,measurement,setting,value
CCNC(=O)c1noc(-c2cc(Cl)c(O)cc2O)c1-c1ccc(OC)cc1 [VER-50589],% Enzyme Activity (relative to DMSO controls),"BLK; BLK, 10uM, ATP 10 uM, Data 1, Data 2",99.82%
same,remaining activity at 10 µM,"BLK; BLK, 10uM, ATP 10 uM, Data 1, Data 2, read-out: % Enzyme Activity (relative to DMSO controls)",94%
same,inhibition at 10 µM,BLK,3 ± 4%
same,% Enzyme Activity (relative to DMSO controls),"PDK2/PDHK2; PDK2/PDHK2, 10uM, ATP 15 uM, Data 1, Data 2",9.11% and 0.34%
same,inhibition at 10 µM,PDK2/PDHK2,95 ± 6%
same,% Enzyme Activity (relative to DMSO controls),"PDK4/PDKH4; PDK4/PDKH4, 10uM, ATP 30 uM, Data 1, Data 2",-0.13% and 4.42%
same,inhibition at 10 µM,PDK4/PDKH4,98 ± 3%
same,% Enzyme Activity (relative to DMSO controls),"c-Src; c-Src, 10uM, ATP 15 uM, Data 1, Data 2",103.77% and 68.69%
same,inhibition at 10 µM,c-Src,14 ± 25%
same,% Enzyme Activity (relative to DMSO controls),"PASK; PASK, 10uM, ATP 50 uM, Data 1, Data 2",102.75%
same,remaining activity at 10 µM,"PASK; PASK, 10uM, ATP 50 uM, Data 1, Data 2, read-out: % Enzyme Activity (relative to DMSO controls)",109%
same,inhibition at 10 µM,PASK,-6 ± 5%
same,% Enzyme Activity (relative to DMSO controls),"TRKA; TRKA, 10uM, ATP 100 uM, Data 1, Data 2",96.8%
same,remaining activity at 10 µM,"TRKA; TRKA, 10uM, ATP 100 uM, Data 1, Data 2, read-out: % Enzyme Activity (relative to DMSO controls)",100%
same,inhibition at 10 µM,TRKA,2 ± 2%
CCNC(=O)c1noc(-c2cc(C(C)C)c(O)cc2O)c1-c1ccc(CN2CCOCC2)cc1 [Luminespib],inhibition at 10 µM,BLK,62 ± 1%
same,inhibition at 10 µM,PDK2/PDHK2,78 ± 1%
same,inhibition at 10 µM,PDK4/PDKH4,71 ± 2%
same,inhibition at 10 µM,c-Src,65 ± 2%
same,inhibition at 10 µM,PASK,1%
same,inhibition at 10 µM,TRKA,-1%
same,% Enzyme Activity (relative to DMSO controls),382 unique human kinases [1],5.92%
same,remaining activity at 10 µM,382 unique human kinases [1]; [17],6.23%
same,% Enzyme Activity (relative to DMSO controls),382 unique human kinases [2],31.43%
same,remaining activity at 10 µM,382 unique human kinases [2]; [17],31.8%
same,% Enzyme Activity (relative to DMSO controls),382 unique human kinases [3],97.41%
same,remaining activity at 10 µM,382 unique human kinases [3]; [17],98.2%
same,% Enzyme Activity (relative to DMSO controls),382 unique human kinases [4],97.60%
same,remaining activity at 10 µM,382 unique human kinases [4]; [17],97.9%
same,% Enzyme Activity (relative to DMSO controls),382 unique human kinases [5],98.83%
same,remaining activity at 10 µM,382 unique human kinases [5]; [17],99.7%
same,% Enzyme Activity (relative to DMSO controls),382 unique human kinases [6],98.35%
same,remaining activity at 10 µM,382 unique human kinases [6]; [17],100%
same,% Enzyme Activity (relative to DMSO controls),382 unique human kinases [7],90.88%
same,remaining activity at 10 µM,382 unique human kinases [7]; [17],91.3%
same,% Enzyme Activity (relative to DMSO controls),382 unique human kinases [8],98.62%
same,remaining activity at 10 µM,382 unique human kinases [8]; [17],100%
same,% Enzyme Activity (relative to DMSO controls),382 unique human kinases [9],95.24%
same,remaining activity at 10 µM,382 unique human kinases [9]; [17],96.2%
CC(C)c1cc(-c2n[nH]c(=O)n2-c2ccc3c(ccn3C)c2)c(O)cc1O [Ganetespib (STA9090)],remaining activity at 10 µM,382 unique human kinases [10],107%
CCNC(=O)c1noc(-c2cc(C(C)C)c(O)cc2O)c1-c1ccc(CN2CCOCC2)cc1 [Luminespib (AUY-922)],% Enzyme Activity (relative to DMSO controls),382 unique human kinases [11],76.27%
same,remaining activity at 10 µM,382 unique human kinases [11]; [17],78.4%
same,% Enzyme Activity (relative to DMSO controls),382 unique human kinases [12],100.18%
same,remaining activity at 10 µM,382 unique human kinases [12]; [17],100%
same,% Enzyme Activity (relative to DMSO controls),382 unique human kinases [13],101.23%
same,remaining activity at 10 µM,382 unique human kinases [13]; [17],103%
same,% Enzyme Activity (relative to DMSO controls),382 unique human kinases [14],104.49%
same,remaining activity at 10 µM,382 unique human kinases [14]; [17],106%
same,% Enzyme Activity (relative to DMSO controls),382 unique human kinases [15],72.16%
same,remaining activity at 10 µM,382 unique human kinases [15]; [17],73.3%
same,% Enzyme Activity (relative to DMSO controls),382 unique human kinases [16],104.65%
same,remaining activity at 10 µM,382 unique human kinases [16]; [17],107%
CC(C)c1cc(-c2n[nH]c(=O)n2-c2ccc3c(ccn3C)c2)c(O)cc1O [Ganetespib],"pActivity, HSP90B1",HSP90B1,8
